The values below come from paper PMC12748375, “Insights into cannabinoid receptor 2 (CB2) anterograde trafficking and pharmacological chaperoning” (Cellular and Molecular Life Sciences: CMLS, 2025).

For assay [1], the target named is T1, hCB2 wt (Homo sapiens, UniProt P34972).
T1 construct: gene CNR2; full-length (63Q), N-terminal HA tag and three thrombin cleavage sites (HA-3TCS), pcDNA5/FRT, expressed in HEK Flp-in-293 cells
The experiment in a line: receptor internalisation, surface HA immunocytochemistry (Method A). As to conditions: read-out: Method A: Internalisation (3 h) / CB2 wt / pEC50 (± SEM) (converted). The assay is classed as cell-based. From the text:
receptor internalisation, surface HA immunocytochemistry (Method A) on hCB2 wt

The target of assay [2] is T2, hCB2 wt (Homo sapiens, UniProt P34972, K318E/K319E).
T2 construct: gene CNR2; full-length (63Q), N-terminal HA tag and three thrombin cleavage sites (HA-3TCS), pcDNA5/FRT, expressed in HEK Flp-in-293 cells
T2 sequence (P34972 whole entry K318E/K319E): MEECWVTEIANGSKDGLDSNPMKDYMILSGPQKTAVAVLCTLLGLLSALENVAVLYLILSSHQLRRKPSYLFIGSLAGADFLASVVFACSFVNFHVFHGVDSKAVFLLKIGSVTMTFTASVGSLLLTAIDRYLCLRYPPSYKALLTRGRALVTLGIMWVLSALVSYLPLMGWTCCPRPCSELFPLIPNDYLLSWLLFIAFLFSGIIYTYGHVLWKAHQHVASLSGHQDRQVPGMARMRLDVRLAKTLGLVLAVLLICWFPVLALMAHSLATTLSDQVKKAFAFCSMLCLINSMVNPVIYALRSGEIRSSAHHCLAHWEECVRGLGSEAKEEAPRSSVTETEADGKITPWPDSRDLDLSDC
The assay can be described thus: net surface expression, immunocytochemistry (Method B). The assay is classed as cell-based. As to conditions: read-out: Method B: Net Surface Expression (3 h) / KK mutant / pEC50 (± SEM) (converted).

Molecules are shown by their SMILES.

T1 sequence (P34972 whole entry): as the sequence (P34972 whole entry K318E/K319E) above, with E318K, E319K counted along it

In the case of `CCCCC/C=C\C/C=C\C/C=C\C/C=C\CCCC(=O)OC(CO)CO` [2-AG], the EC50 on hCB2 wt [1] is 741 nM.

Take `COc1ccc(C(=O)c2c(C)n(CCN3CCOCC3)c3cc(I)ccc23)cc1` [AM630]: the EC50 on hCB2 wt [2] was 513 nM.
